Assay results taken from patent US12629415B2, “Vaccine adjuvants” (THE PROVOST, FELLOWS, FOUNDATION SCHOLARS, AND THE OTHER …, priority 2018, dated 2026).
Entries after “also recorded” stand apart in the source; their conditions may differ.

How the values were obtained:
PBMCs or CBMCs [1] = assay: BioLegend LEGENDplex Human Inflammation Panel; assay type: cell-based; settings: CBMCs and PBMCs; Poly(I:C) 24 h, LPS 4 h, CpG ODN 24 h
Description: (§1) Poly(I:C) (5 μg/ml) (Invivogen), Poly(dA:dT) (5 μg/ml) (Sigma-Aldrich), 2′3′ cGAMP (10 μg/ml), 5′ triphosphate double stranded RNA (5′ ppp dsRNA) (2.5 μg/ml) and HSV-60 (2 μg/ml) (all from Invivogen) were transfected into PBMCs or CBMCs using TransIT-X2 (Mirus).
(§2) Measurement of cytokines—HEK Blue TNFα/IFNα/β Assays were performed as per the manufacturer's (Invivogen) instructions using Quanti-Blue Detection Reagent. SEAP levels were determined using a spectrophotometer plate reader at 630 nm. IFNα (3425-1H-6, Mabtech) and IP-10 (DY266, R&D Systems) were detected by sandwich ELISA. IFNα ELISA used pan specific IFNα antibodies, which allows detection of IFNα subtypes 1/13, 2, 4, 5, 6, 7, 8, 10, 14, 16 and 17. BioLegend LEGENDplex™ Human Inflammation Panel (13-plex) was carried out as per manufacturer's (Biolegend) instructions to determine levels of IFNγ, IL-10, IL-12p70 and IL-23. A BD LSR Fortessa cell analyser was used to acquire samples and BioLegend LEGENDplex™ software was used for analysis.

IRF3 = assay: TransAM IRF3 activation assay on nuclear extracts; assay type: cell-based, human; settings: CBMCs
Description: (§3) IRF3/7 activation—Active Motif TransAM™ IRF3 and IRF7 assays were carried out on nuclear extracts from PBMCs or CBMCs, harvested as per manufacturer's (Active Motif) instructions, to detect and quantify IRF3 or IRF7 activation.

[2] = system: mononuclear cells from cord blood, children's blood or adult blood; assay: HEK-Blue IFNα/β and TNFα assays on mononuclear cells of cord blood, children and adults; assay type: cell-based, human; settings: transfection 24 h, 4-24 months, 2-5 years, 6-11 years
Description: Umbilical cord blood samples were obtained from term births following normal pregnancy, labour and delivery at National Maternity Hospital (NMH), Holles St, Dublin 2. […] Venous blood from infants, children and adolescents of various ages was collected during elective surgical procedures where no indication of infection was present (such as hydrocele repair, umbilical hernia repair, onychocryptosis, orchipexy repair) in Our Lady's Children's Hospital Crumlin (OLCHC), Dublin 12. […] Volumes drawn were age and weight dependent, according to standard, approved guidelines. Ethics approval was obtained from the Ethics Committees of NMH and OLCHC and informed consent was obtained from each subject or their parent/guardian. Adult blood samples were from healthy adults, supplied by the Irish Blood Transfusion Service. • Poly(I:C), Poly(dA:dT) and cGAMP were obtained from Invivogen • Poly (dA:dT) is a repetitive synthetic double-stranded DNA sequence of poly(dA-dT)-poly(dT-dA) http://www.invivopen.com/poly-dadt-naked • Poly (I:C) comprises long strands of inosine poly(I) homopolymer annealed to strands of cytidine poly(C) homopolymer http://www.invivogen.com/polyic-hmw. • cGAMP is cyclic [G(2′,5′)pA(3′,5′)p]; Formula: […], 2Na Methodology
(§4) Isolation of mononuclear cells and monocytes—Primary PBMCs or CBMCs were isolated from healthy human blood or cord blood. Monocytes were isolated by negative selection using Monocyte Isolation Kit II (Miltenyi). Monocyte purity was assessed using CD14 staining and was routinely 85-95%. Cells were cultured at 37° C., 5% CO2, 95% air in RPMI-1640, with stable 2.5 mM L-glutamine and 0.5 mM sodium pyruvate with 10% FBS (all from Sigma-Aldrich).
as §1, §2

PBMCs or CBMCs [3] = assay: Quantitative RT-PCR of TNFα, IFNα and CXCL10 mRNA; assay type: cell-based, human; settings: CBMCs vs PBMCs
Description: as §1
Quantitative RT-PCR—Total RNA from PBMCs or CBMCs was extracted using trizol extraction as previously described (16) and was reverse transcribed using MMLV Reverse Transcriptase (Promega) according to the manufacturer's protocol. This cDNA served as template for amplification of target genes, along with the ‘housekeeping’ gene βActin, by real-time PCR with SensiFast SYBR Green (Bioline) to determine the relative amounts of CXCL10, IFNα and TNFα mRNA. The ABI 7900HT system (Applied Biosystems) was used for real-time PCR, and the cycling threshold method (2^−(ΔΔCt)) was used for relative quantification by comparative method after normalization to βActin expression.

IRF7 = assay: TransAM IRF7 activation assay on nuclear extracts; assay type: cell-based, human; settings: CBMCs; LPS 15 min, CpG 1 h, Poly(I:C) transfection 1 h
Description: as §3

PBMCs or CBMCs [4] = assay: HEK-Blue TNFα assay on supernatants; assay type: cell-based, human; settings: CBMCs compared with PBMCs; 4, 8 or 24 hours
Description: as §1, §2

PBMCs or CBMCs [5] = assay: IFNα sandwich ELISA on supernatants; assay type: cell-based, human; settings: for IFNα secretion (ELISA): CBMCs compared with PBMCs, 8 or 24 h
Description: as §1, §2

PBMCs or CBMCs [6] = assay: CXCL10 (IP-10) ELISA; assay type: cell-based, human; settings: CBMCs compared with PBMCs
Description: as §1, §2

[7] = system: adult PBMCs or neonatal CBMCs; assay: HEK-Blue IFNα/β SEAP assay on supernatants of stimulated mononuclear cells; assay type: cell-based, human; settings: for innate immune response in neonatal and/or paediatric blood: compared with adult blood, summary statement
Description: as §4, with “Monocyte purity was assessed using CD14 staining and was routinely 85-95%.” left out
as §1, §2

bovine PBMCs = assay: Bovine IFN-γ ELISA on stimulated PBMCs; assay type: cell-based, cattle; settings: calves <1 year old; ConA 1 μg/ml with or without LPS 100 pg/ml; 72 hours
Description: Bovine peripheral blood mononuclear cells were isolated from whole blood samples collected in 9m1 vacutainers containing Heparin anticoagulant. PBMCs were spun and separated using leucosep tubes (Cruinn) and a density gradient histopaque 1077 (Sigma-Aldrich) at a speed of 1200 g for 20 minutes. Red blood cell contamination was eliminated using sterile 0.25% sodium chloride (Baxter) as a lysis buffer. The cells were subsequently washed twice in PBS at a speed of 600 g for 10 minutes to remove impurities.
Cells were counted using a haemocytometer, microscope and trypan blue (Sigma Aldrich) and seeded at appropriate densities in tissue culture plates (Cruinn) containing media. The cells were incubated at 37° C. at 5% CO2 treated within hours of plating to avoid unwanted cell death.
When analysing the effects of IL-1β on T cell activation, cells were pre-treated with 250 μg/ml of IL-1 receptor antagonist (IL-1Ra) 40 minutes before stimulation with IL-1β (25 ng/ml). Cells were subsequently stimulated with concanavalin A (1 μg/ml) 1 hour after addition of IL-1β. Similarly, when analysing the effects of polydA:dT on T cell activation, cells were stimulated with polydA:dT (1 μg/ml) 1 hour before ConA treatment (1 μg/ml). LPS (100 pg/ml) primed cells were incubated with YVAD-FMK (10 μm), an inhibitor specific for caspase-1. After 40 minutes, the cells were stimulated with alum (50 μg/ml) for 24 hours and supernatants were then harvested and analysed by ELISA for IL-1β
Capture antibodies (50 μl/well), diluted in the appropriate buffers, were dispensed into the wells of high binding plates (Greiner Bio-One) and incubated overnight at room temperature or 4° C. For analysis of IL-17, the ELISA plates were pre-coated with capture antibody by the manufacturing before delivery. The wells were washed with PBS/Tween 3 times and the plates were then incubated with 150 μl of blocking buffer for 1 hour at room temperature. The plates were washed again before supernatant (neat or diluted) and recombinant standards were added for 1 hour at room temperature. Following this, the plates were washed and 50 μl of detection antibody was added to the wells for a period of 1 or 2 hours at room temperature. After washing, 50 μl diluted streptavidin-HRP was added to the plate for between 30 minutes and 1 hour. After the final wash, 50 μl of 3,3′-, 5,5′-Tetramethylbenzidine (TMB) substrate was added and the plates were incubated in the dark. The reaction was stopped by addition of 1M sulphuric acid and the absorbance readings were measured at 450 nm using a microtitre plate reader. The cytokine concentrations were calculated using a linear regression standard curve from recombinant cytokines of known concentration. Skanit™ software was used to estimate values.

Compound: polyinosinic-polycytidylic acid [Poly(I:C)]
- IFNγ (PBMCs or CBMCs [1]): induces Th1 polarising IL-12p70 and IFNγ in CBMCs; also recorded: significantly increased in CBMCs compared to PBMCs; also recorded: neonates produced significantly higher levels of both IL-12p70 and IFNγ
- IL-10 (PBMCs or CBMCs [1]): low but detectable, with no significant difference between adult and cord blood cells noted; also recorded: no difference in levels of anti-inflammatory IL-10 or Th17-polarising IL-23 between neonates and adults
- IL-12p70 (PBMCs or CBMCs [1]): induces Th1 polarising IL-12p70 and IFNγ in CBMCs; also recorded: increased in CBMCs compared to PBMCs; also recorded: significantly enhanced response to Poly(I:C) transfection was found in CBMCs compared to PBMCs; also recorded: neonates produced significantly higher levels of both IL-12p70 and IFNγ
- IL-23 (PBMCs or CBMCs [1]): low but detectable, with no significant difference between adult and cord blood cells noted; also recorded: no difference in levels of anti-inflammatory IL-10 or Th17-polarising IL-23 between neonates and adults
- increase in IRF3 activation above basal levels (IRF3): ~80%
- TNFα production across age groups [2]: maintenance of cord blood responsiveness to CNA was also observed for both Poly(I:C) and Poly(dA:dT)-induced TNFα production to the age of 24 months
- production of type I IFN across age groups [2]: maintained throughout childhood; also recorded: maintained up to the age of two
- CXCL10 mRNA expression (PBMCs or CBMCs [3]; 4 h): no inhibition of transcription
- IFNα mRNA expression (PBMCs or CBMCs [3]; 24 h): no inhibition of transcription
- TNFα mRNA expression (PBMCs or CBMCs [3]; CNA 4 h, LPS 2 h): no significant difference in TNFα levels
- IRF7 activation (IRF7): not significantly activated
- TNFα production (PBMCs or CBMCs [4]): significantly more TNFα production from neonatal cells than from adult cells
- IFNα secretion (ELISA) (PBMCs or CBMCs [5]): equivalent or enhanced CNA sensor responses in neonates compared to adults
- CXCL10 protein secretion (PBMCs or CBMCs [6]): no significant difference in the CXCL10 response between PBMCs or CBMCs
- innate immune response in neonatal and/or paediatric blood [7]: robust innate immune response in neonatal and/or paediatric blood
- type I IFN (IFNα/β) production ([7]; neonatal CBMCs compared with adult PBMCs, stimulation 4, 8 or 24 h): no inhibition of type I IFN production in CBMCs when compared to PBMCs

Compound: Nc1nc2c(ncn2[C@@H]2O[C@@H]3COP(=O)(O)O[C@H]4[C@@H](O)[C@H](n5cnc6c(N)ncnc65)O[C@@H]4COP(=O)(O)O[C@@H]2[C@@H]3O)c(=O)[nH]1 [cGAMP, cyclic [G(2′,5′)pA(3′,5′)p]]
- TNFα production (PBMCs or CBMCs [4]): significantly more TNFα production from neonatal cells than from adult cells
- IFNα secretion (ELISA) (PBMCs or CBMCs [5]): CBMCs responded equally well or with enhanced IFNα-production when compared with PBMCs
- level of IFNα produced, relative to Poly(I:C) or Poly(dA:dT) (PBMCs or CBMCs [5]; adult and neonatal cells): lower than that in response to either Poly(I:C) or Poly(dA:dT)
- innate immune response in neonatal and/or paediatric blood [7]: robust innate immune response in neonatal and/or paediatric blood

Compound: interleukin 1: cytokine interleukin 1 added with ConA [reference compound]
- IFN-γ secretion by ConA stimulated bovine PBMCs (bovine PBMCs): enhanced IFN production

Compound: CCCc1nc2c(N)nc3ccccc3c2s1 [CL075, reference compound]
- TNFα production (PBMCs or CBMCs [4]): no significant difference in TNFα production
